Reference: publication PMC5862592, “CDK8/19 inhibition induces premature G1/S transition and ATR-dependent cell death in prostate cancer cells” (Oncotarget, 2018)
Like-named read-outs stand apart in the source and are kept apart here.

What was measured:
Assay in all cases: biochemical
Set-up in all cases: KINOMEscan active site-directed competition binding assay (DiscoveRx), 456 kinases, per cent of control at 300 nM
Conditions in all cases: read-out: Percent of Control (%)
AURKA = AURKA (Homo sapiens, UniProt O14965)
Description: (§1) Kinase selectivity of T-474 and T-418 was evaluated at 300 nmol/L using a panel of 456 kinases at DiscoveRx (KINOMEscan). The platform employs an active site-directed competition binding assay to quantitatively measure interactions between test compounds and kinases. […] In VCaP prostate cancer cells, treatment with T-474 or T-418 suppressed the phosphorylation of the known CDK8 substrate STAT1 at Ser727 both in the absence and in the presence of IFN-γ (Figure 1B), which stimulates CDK8-mediated STAT1 phosphorylation.

CAMKK2 = CAMKK2 (Homo sapiens, UniProt Q96RR4)
Description: as §1

CDC2L1 = target: T1, CDC2L1 (Homo sapiens, UniProt P21127)
T1 construct: gene CDK11B
Description: as §1

CDKL5 = CDKL5 (Homo sapiens, UniProt O76039)
Description: as §1

CHEK1 = CHEK1 (Homo sapiens, UniProt O14757)
Description: as §1

EPHA2 = EPHA2 (Homo sapiens, UniProt P29317)
Description: as §1

EPHB3 = EPHB3 (Homo sapiens, UniProt P54753)
Description: as §1

ERBB3 = ERBB3 (Homo sapiens, UniProt P21860)
Description: as §1

GRK1 = GRK1 (Homo sapiens, UniProt Q15835)
Description: as §1

IKK-alpha = target: T2, IKK-alpha (Homo sapiens, UniProt O15111)
T2 construct: gene CHUK
Description: as §1

ITK = ITK (Homo sapiens, UniProt Q08881)
Description: as §1

KIT(D816H) = KIT(D816H) (Homo sapiens, UniProt P10721, D816H)
Description: as §1

LIMK2 = LIMK2 (Homo sapiens, UniProt P53671)
Description: as §1

PAK7 = target: T3, PAK7 (Homo sapiens, UniProt Q9P286)
T3 construct: gene PAK5
Description: as §1

PKN2 = PKN2 (Homo sapiens, UniProt Q16513)
Description: as §1

RET(M918T) = RET(M918T) (Homo sapiens, UniProt P07949, M918T)
Description: as §1

RIOK2 = RIOK2 (Homo sapiens, UniProt Q9BVS4)
Description: as §1

RIOK3 = RIOK3 (Homo sapiens, UniProt O14730)
Description: as §1

ROCK1 = ROCK1 (Homo sapiens, UniProt Q13464)
Description: as §1

STK33 = STK33 (Homo sapiens, UniProt Q9BYT3)
Description: as §1

TLK2 = TLK2 (Homo sapiens, UniProt Q86UE8)
Description: as §1

p38-delta = target: T4, p38-delta (Homo sapiens, UniProt O15264)
T4 construct: gene MAPK13
Description: as §1

Sequence of TLK2 (Q86UE8 whole entry): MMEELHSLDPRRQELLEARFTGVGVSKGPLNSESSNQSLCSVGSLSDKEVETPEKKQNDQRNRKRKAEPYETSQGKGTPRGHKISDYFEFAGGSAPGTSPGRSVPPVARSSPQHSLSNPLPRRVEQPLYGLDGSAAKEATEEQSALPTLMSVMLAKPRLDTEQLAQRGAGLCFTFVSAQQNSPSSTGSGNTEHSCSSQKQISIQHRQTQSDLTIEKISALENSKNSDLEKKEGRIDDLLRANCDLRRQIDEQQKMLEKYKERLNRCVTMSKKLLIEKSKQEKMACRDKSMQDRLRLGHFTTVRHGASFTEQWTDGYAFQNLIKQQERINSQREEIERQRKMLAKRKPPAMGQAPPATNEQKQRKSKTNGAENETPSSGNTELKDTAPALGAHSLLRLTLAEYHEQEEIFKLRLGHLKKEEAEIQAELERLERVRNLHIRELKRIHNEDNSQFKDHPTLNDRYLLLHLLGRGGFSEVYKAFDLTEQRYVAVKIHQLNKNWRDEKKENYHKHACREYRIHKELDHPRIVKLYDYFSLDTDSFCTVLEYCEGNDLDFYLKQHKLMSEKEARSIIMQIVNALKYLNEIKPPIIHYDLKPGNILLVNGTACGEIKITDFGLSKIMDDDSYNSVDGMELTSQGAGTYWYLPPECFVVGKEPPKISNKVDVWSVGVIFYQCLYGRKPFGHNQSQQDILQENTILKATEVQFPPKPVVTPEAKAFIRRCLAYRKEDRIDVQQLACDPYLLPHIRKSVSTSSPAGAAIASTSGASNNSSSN
T4 sequence (O15264 whole entry): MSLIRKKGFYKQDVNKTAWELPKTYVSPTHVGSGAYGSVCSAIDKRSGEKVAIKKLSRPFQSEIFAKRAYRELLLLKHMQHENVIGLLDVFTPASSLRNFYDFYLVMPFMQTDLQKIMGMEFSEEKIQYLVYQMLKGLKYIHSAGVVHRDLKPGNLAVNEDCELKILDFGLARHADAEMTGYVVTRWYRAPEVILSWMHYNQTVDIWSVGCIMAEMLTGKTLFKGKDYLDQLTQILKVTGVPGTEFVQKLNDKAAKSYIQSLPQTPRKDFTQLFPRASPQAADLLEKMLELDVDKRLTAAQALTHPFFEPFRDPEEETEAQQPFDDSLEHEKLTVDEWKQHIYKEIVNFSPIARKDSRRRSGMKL
Sequence of GRK1 (Q15835 whole entry): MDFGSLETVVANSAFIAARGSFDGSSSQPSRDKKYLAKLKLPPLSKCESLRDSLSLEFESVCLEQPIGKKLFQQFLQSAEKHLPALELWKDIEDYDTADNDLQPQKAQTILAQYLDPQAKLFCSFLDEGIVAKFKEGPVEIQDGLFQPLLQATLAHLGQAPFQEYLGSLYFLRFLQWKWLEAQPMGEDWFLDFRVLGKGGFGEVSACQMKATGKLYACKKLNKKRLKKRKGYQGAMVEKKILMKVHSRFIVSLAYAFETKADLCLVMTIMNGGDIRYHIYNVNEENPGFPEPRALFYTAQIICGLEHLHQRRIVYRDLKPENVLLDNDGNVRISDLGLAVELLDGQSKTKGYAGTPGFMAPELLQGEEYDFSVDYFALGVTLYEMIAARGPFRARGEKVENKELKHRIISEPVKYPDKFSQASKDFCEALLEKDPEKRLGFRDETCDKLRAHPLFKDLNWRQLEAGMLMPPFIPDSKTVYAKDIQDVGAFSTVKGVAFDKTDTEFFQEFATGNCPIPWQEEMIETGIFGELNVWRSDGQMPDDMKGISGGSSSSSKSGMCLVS
Sequence of KIT(D816H) (P10721 whole entry D816H): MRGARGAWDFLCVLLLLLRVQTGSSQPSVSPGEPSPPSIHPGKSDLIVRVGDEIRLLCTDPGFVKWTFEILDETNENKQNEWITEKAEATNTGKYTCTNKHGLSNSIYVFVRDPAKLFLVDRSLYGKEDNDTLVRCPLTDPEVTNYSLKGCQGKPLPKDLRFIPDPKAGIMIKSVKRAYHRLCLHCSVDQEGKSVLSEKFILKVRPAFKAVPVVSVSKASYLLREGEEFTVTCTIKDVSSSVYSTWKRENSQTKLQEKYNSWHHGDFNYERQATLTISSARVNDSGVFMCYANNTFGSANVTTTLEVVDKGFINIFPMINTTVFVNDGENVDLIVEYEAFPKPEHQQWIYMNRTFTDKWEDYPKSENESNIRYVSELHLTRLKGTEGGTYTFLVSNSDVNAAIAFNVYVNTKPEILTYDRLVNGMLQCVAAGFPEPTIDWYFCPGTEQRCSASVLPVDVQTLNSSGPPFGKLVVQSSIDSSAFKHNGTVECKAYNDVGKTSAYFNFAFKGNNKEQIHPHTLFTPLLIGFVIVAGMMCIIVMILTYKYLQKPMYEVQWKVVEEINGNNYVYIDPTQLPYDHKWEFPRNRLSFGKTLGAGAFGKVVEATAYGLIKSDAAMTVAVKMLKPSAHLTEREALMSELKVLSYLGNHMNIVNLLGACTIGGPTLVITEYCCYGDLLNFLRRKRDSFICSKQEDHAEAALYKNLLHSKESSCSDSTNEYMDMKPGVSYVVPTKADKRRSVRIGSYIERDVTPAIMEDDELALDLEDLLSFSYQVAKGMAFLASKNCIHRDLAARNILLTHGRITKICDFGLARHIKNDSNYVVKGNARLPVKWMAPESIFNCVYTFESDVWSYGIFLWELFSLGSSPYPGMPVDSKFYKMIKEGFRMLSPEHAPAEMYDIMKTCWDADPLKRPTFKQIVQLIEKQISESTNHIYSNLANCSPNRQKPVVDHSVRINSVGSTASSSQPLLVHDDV
Sequence of ROCK1 (Q13464 whole entry): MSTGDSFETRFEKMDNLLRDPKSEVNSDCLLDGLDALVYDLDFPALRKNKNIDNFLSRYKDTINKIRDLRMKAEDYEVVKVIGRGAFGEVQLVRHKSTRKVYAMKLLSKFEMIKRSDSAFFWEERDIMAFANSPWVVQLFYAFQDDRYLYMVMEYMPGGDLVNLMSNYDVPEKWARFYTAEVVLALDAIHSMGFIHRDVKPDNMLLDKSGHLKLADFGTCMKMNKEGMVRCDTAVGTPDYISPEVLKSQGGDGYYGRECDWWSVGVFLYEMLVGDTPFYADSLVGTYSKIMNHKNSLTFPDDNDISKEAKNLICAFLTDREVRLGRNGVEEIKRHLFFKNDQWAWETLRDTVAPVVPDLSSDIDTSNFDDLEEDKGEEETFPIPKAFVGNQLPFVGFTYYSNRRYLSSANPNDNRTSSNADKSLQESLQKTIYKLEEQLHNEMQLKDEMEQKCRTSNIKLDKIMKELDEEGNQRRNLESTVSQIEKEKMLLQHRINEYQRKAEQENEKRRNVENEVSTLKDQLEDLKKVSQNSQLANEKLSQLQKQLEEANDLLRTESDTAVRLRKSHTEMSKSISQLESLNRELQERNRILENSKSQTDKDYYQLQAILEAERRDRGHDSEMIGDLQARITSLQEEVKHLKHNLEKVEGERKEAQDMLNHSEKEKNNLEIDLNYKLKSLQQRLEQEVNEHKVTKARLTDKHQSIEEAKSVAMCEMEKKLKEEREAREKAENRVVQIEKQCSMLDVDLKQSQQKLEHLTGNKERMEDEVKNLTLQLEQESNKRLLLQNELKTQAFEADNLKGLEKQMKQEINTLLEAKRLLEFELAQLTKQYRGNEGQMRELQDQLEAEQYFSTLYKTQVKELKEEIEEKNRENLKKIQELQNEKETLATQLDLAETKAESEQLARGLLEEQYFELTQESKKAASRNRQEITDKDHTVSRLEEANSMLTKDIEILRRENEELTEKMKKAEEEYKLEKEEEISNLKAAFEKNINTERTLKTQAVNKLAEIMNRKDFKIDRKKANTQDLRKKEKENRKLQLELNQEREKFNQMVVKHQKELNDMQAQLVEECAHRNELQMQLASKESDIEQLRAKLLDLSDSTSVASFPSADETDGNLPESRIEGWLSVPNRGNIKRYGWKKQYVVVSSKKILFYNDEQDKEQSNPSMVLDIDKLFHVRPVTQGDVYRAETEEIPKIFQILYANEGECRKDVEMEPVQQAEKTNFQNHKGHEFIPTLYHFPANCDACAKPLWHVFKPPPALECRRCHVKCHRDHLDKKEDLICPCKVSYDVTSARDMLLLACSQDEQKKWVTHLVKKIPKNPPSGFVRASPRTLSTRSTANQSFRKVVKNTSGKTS
Sequence of CAMKK2 (Q96RR4 whole entry): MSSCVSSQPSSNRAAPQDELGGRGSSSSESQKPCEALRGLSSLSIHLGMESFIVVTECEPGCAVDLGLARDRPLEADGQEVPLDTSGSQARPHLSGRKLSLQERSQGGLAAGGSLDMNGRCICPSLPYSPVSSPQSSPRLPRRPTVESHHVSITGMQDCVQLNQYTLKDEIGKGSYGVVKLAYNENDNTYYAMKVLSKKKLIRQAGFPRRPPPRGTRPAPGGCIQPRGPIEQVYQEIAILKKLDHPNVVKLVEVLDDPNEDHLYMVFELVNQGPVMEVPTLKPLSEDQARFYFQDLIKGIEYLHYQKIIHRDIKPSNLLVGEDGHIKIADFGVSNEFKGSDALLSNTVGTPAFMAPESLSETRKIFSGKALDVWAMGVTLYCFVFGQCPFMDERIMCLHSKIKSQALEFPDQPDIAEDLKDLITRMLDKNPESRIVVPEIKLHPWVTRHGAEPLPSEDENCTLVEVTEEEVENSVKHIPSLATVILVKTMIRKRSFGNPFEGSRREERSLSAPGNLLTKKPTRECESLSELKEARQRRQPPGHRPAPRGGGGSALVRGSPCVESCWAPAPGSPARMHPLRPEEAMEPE
Sequence of AURKA (O14965 whole entry): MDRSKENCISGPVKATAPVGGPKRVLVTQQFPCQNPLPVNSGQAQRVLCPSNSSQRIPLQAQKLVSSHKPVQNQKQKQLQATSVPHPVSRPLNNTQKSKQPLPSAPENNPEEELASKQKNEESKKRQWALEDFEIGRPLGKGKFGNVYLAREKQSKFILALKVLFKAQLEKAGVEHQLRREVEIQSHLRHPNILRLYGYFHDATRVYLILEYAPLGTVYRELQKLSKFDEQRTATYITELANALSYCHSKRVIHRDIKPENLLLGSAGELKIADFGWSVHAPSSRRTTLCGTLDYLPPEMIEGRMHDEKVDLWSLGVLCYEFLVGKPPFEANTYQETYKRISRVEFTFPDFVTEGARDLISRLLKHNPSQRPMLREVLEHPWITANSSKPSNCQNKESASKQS

O=C(/C=C/c1cnccc1-c1ccc(F)cc1)Nc1ccc(CCc2nnco2)cc1 [T-418, (2E)-3-(4-(4-fluorophenyl)pyridin-3-yl)-N-(4-(2-(1,3,4-oxadiazol-2-yl)ethyl)phenyl)acrylamide]
remaining binding at 0.3 µM (AURKA; sheet T-418): 100% | remaining binding at 0.3 µM (CAMKK2; sheet T-418): 100% | remaining binding at 0.3 µM (CDC2L1; sheet T-418): 92% | remaining binding at 0.3 µM (CDKL5; sheet T-418): 88% | remaining binding at 0.3 µM (CHEK1; sheet T-418): 100% | remaining binding at 0.3 µM (EPHA2; sheet T-418): 100% | remaining binding at 0.3 µM (EPHB3; sheet T-418): 98% | remaining binding at 0.3 µM (ERBB3; sheet T-418): 76% | remaining binding at 0.3 µM (GRK1; sheet T-418): 100% | remaining binding at 0.3 µM (IKK-alpha; sheet T-418): 100% | remaining binding at 0.3 µM (ITK; sheet T-418): 100% | remaining binding at 0.3 µM (KIT(D816H); sheet T-418): 74% | remaining binding at 0.3 µM (LIMK2; sheet T-418): 74% | remaining binding at 0.3 µM (PAK7; sheet T-418): 100% | remaining binding at 0.3 µM (PKN2; sheet T-418): 95% | remaining binding at 0.3 µM (RET(M918T); sheet T-418): 98% | remaining binding at 0.3 µM (RIOK2; sheet T-418): 99% | remaining binding at 0.3 µM (RIOK3; sheet T-418): 78% | remaining binding at 0.3 µM (ROCK1; sheet T-418): 81% | remaining binding at 0.3 µM (STK33; sheet T-418): 91% | remaining binding at 0.3 µM (TLK2; sheet T-418): 100% | remaining binding at 0.3 µM (p38-delta; sheet T-418): 100%

Cc1ncccc1Oc1sc(C(N)=O)c2c1-c1c(cnn1C)CC2 [T-474, 1-methyl-8-((2-methylpyridin-3-yl)oxy)-4,5-dihydro-1H-thieno[3,4-g]indazole-6-carboxamide]
remaining binding at 0.3 µM (AURKA): 100% | remaining binding at 0.3 µM (CAMKK2): 100% | remaining binding at 0.3 µM (CDC2L1): 100% | remaining binding at 0.3 µM (CDKL5): 100% | remaining binding at 0.3 µM (CHEK1): 100% | remaining binding at 0.3 µM (EPHA2): 86% | remaining binding at 0.3 µM (EPHB3): 100% | remaining binding at 0.3 µM (ERBB3): 78% | remaining binding at 0.3 µM (GRK1): 100% | remaining binding at 0.3 µM (IKK-alpha): 100% | remaining binding at 0.3 µM (ITK): 100% | remaining binding at 0.3 µM (KIT(D816H)): 78% | remaining binding at 0.3 µM (LIMK2): 79% | remaining binding at 0.3 µM (PAK7): 100% | remaining binding at 0.3 µM (PKN2): 100% | remaining binding at 0.3 µM (RET(M918T)): 100% | remaining binding at 0.3 µM (RIOK2): 87% | remaining binding at 0.3 µM (RIOK3): 74% | remaining binding at 0.3 µM (ROCK1): 100% | remaining binding at 0.3 µM (STK33): 86% | remaining binding at 0.3 µM (TLK2): 100% | remaining binding at 0.3 µM (p38-delta): 96%
